Earlier results in US10532971B2, “4-hydroxybutyric acid analogs” (Concert Pharmaceuticals, Inc., priority 2009, dated 2020).
Counter-ions that a name gives are not always drawn.

Assays:
[1] = in humans
[2] = clinical trials; dose-dependent adverse effects

Compound: O=C(O)CCCO [4-hydroxybutyric acid, 4-Hydroxybutyric acid]
- half life [1]: 30 to 60 min

Compound: O=C(O)CCCO [sodium oxybate, sodium salt of 4-hydroxybutyric acid]
- rates of headache, nausea, and dizziness [2]: 17-22%
